Test results as given in patent publication US20250353873A1, “COMPOUNDS AND METHODS FOR MODULATING APOE EXPRESSION” (Ionis Pharmaceuticals, Inc., priority 2024, published 2025).
Strand notation (5' to 3'): a small letter for the sugar, then the base; units joined by * are phosphorothioate-linked, units joined directly phosphodiester-linked; [ ] holds rarer units or linkages, { } end groups; capitals alone tell only the bases. [ms] = mesyl phosphoramidate linkage; e = 2'-O-(2-methoxyethyl) (MOE); k = constrained ethyl (cEt); [5mC] = 5-methylcytosine; d = 2'-deoxy (DNA)

What was measured:
human APOE RNA [1] = experiment: Activity in APOE C57BL/6NTac-Apoeem7250 knock-in mice, single ICV bolus, 4 weeks (Example 10); assay type: in vivo; details: single ICV bolus 300 μg
Outline: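 Knock-in mice (2–4 per group) received one 300 μg ICV bolus of oligonucleotide or PBS. After four weeks, human APOE RNA in cortex and spinal cord measured by RT-qPCR (primer probe set RTS3073), normalized to mouse Ppia, expressed as % of PBS controls.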

human APOE RNA [2] = experiment: Dose-dependent inhibition of human APOE RNA in differentiated SH-SY5Y cells, free uptake, 5 days (Example 5); assay type: cell-based
Method: Modified oligonucleotides selected from the examples above were tested at various doses in differentiated SH-SY5Y cells. The modified oligonucleotides were tested in a series of experiments that had the same culture conditions.
Differentiated SH-SY5Y cells plated at a density of 10,000 cells per well were treated by free uptake with various concentrations of modified oligonucleotide as specified in the tables below. […] APOE RNA levels were measured using the human primer probe set RTS3073 (described herein above). APOE RNA levels were normalized to human PPIA. Human PPIA was amplified using human primer probe set mk_cycloA_2nd (described herein above). Results are presented as percent APOE RNA, relative to the amount of APOE RNA in untreated control cells (% UTC). The half maximal inhibitory concentration (IC50) of each modified oligonucleotide was calculated in GraphPad Prism 10 (GraphPad Software, San Diego, CA) and is also presented in the tables below.

human APOE RNA [3] = experiment: Dose-dependent reduction of human APOE RNA in HepG2 cells, electroporation, 20,000 cells per well, average of GAPDH- and PPIA-normalized results (Example 4, Table 12); assay type: cell-based; details: HepG2, 20,000 cells per well
Method: HepG2 cells plated at a density of 20,000 cells per well were treated by electroporation with various concentrations of modified oligonucleotide as specified in the tables below. […] APOE RNA levels were measured using the human primer probe set RTS3073 (described herein above). APOE RNA levels were normalized to human GAPDH, and human PPIA. Human GAPDH was amplified using human primer probe set RTS104 (described herein above). Human PPIA was amplified using human primer probe set mk_cycloA_2nd (described herein above) The average of the GAPDH-normalized results and the PPIA-normalized results are presented in the table below as percent APOE RNA, relative to the amount of APOE RNA in untreated control cells (% UTC). The half maximal inhibitory concentration (IC50) of each modified oligonucleotide was calculated in GraphPad Prism 10 (GraphPad Software, San Diego, CA) and is also presented in the table below.

human APOE RNA [4] = experiment: Activity in APOE C57BL/6NTac-Apoeem7250 knock-in mice, single ICV bolus, 8 weeks (Example 11); assay type: in vivo; details: for APOE RNA (% control) Cortex / APOE RNA (% control) Spinal Cord: single ICV bolus 300 μg, 8 weeks post treatment, normalized to mouse Ppia
Outline: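 Human APOE knock-in C57BL/6NTac mice given one ICV bolus of 300 μg oligonucleotide; PBS-dosed group as control. At 8 weeks, cortex and spinal cord RNA measured by qRT-PCR (human probe RTS3073), normalized to mouse Ppia, expressed as % of PBS control.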

human APOE RNA [5] = experiment: Activity in APOE C57BL/6NTac-Apoeem7250 knock-in mice, single ICV bolus, 16 weeks (Example 12); assay type: in vivo; details: single ICV bolus 300 μg, 16 weeks post treatment, normalized to mouse Ppia
Outline: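 Knock-in mice (3-4 per group) received one ICV bolus of 300 μg oligonucleotide, PBS as control. After 16 weeks, human APOE RNA in cortex and spinal cord measured by RT-qPCR, normalized to mouse Ppia, and reported as % of PBS control.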

1746809 (k[5mC]*dT[ms]kT*dG[ms]kG*dT[ms]dG[ms]dA[ms]dA[ms]dT*d[5mC]*dT*dT*dT*dA[ms]dT*dT[ms]kA*kA*kA; antisense) [Compound 1746809]
APOE RNA (% control) Cortex (human APOE RNA [1]; cortex, 4 weeks post treatment, normalized to mouse Ppia): 36 % control | APOE RNA (% control) Spinal Cord (human APOE RNA [1]; spinal cord, 4 weeks post treatment, normalized to mouse Ppia): 59 % control | APOE RNA (% UTC) (human APOE RNA [2]; 5 nM, 5 days (Table 14)): 93 % UTC | APOE RNA (% UTC) (human APOE RNA [2]; 13 nM, 5 days (Table 14)): 118 % UTC | APOE RNA (% UTC) (human APOE RNA [2]; 33 nM, 5 days (Table 14)): 80 % UTC | APOE RNA (% UTC) (human APOE RNA [2]; 82 nM, 5 days (Table 14)): 68 % UTC | APOE RNA (% UTC) (human APOE RNA [2]; 205 nM, 5 days (Table 14)): 77 % UTC | APOE RNA (% UTC) (human APOE RNA [2]; 512 nM, 5 days (Table 14)): 57 % UTC | APOE RNA (% UTC) (human APOE RNA [2]; 1,280 nM, 5 days (Table 14)): 31 % UTC | APOE RNA (% UTC) (human APOE RNA [2]; 3,200 nM, 5 days (Table 14)): 34 % UTC | APOE RNA (% UTC) (human APOE RNA [2]; 8,000 nM, 5 days (Table 14)): 12 % UTC | APOE RNA (% UTC) (human APOE RNA [2]; 20,000 nM, 5 days (Table 14)): 8 % UTC | IC50 (human APOE RNA [2]; 5 days (Table 14)): 660 nM | APOE RNA (% UTC) (human APOE RNA [3]; 5 nM): 97 % UTC | APOE RNA (% UTC) (human APOE RNA [3]; 13 nM): 94 % UTC | APOE RNA (% UTC) (human APOE RNA [3]; 33 nM): 86 % UTC | APOE RNA (% UTC) (human APOE RNA [3]; 82 nM): 72 % UTC | APOE RNA (% UTC) (human APOE RNA [3]; 205 nM): 59 % UTC | APOE RNA (% UTC) (human APOE RNA [3]; 512 nM): 34 % UTC | APOE RNA (% UTC) (human APOE RNA [3]; 1,280 nM): 28 % UTC | APOE RNA (% UTC) (human APOE RNA [3]; 3,200 nM): 11 % UTC | APOE RNA (% UTC) (human APOE RNA [3]; 8,000 nM): 15 % UTC | APOE RNA (% UTC) (human APOE RNA [3]; 20,000 nM): 10 % UTC | IC50 (human APOE RNA [3]; approximately 24 hours): 310 nM | APOE RNA (% control) Cortex (human APOE RNA [4]): 47 % control | APOE RNA (% control) Spinal Cord (human APOE RNA [4]): 44 % control

1693105: 6-10-4 MOE gapmer CTTGGTGAATCTTTATTAAA, linkages sosssszzzssssszssss (e[5mC]*eTeT*eG*eG*eT*dG[ms]dA[ms]dA[ms]dT*d[5mC]*dT*dT*dT*dA[ms]dT*eT*eA*eA*eA) [compound 1693105]
APOE RNA (% control) Cortex (human APOE RNA [5]; cortex): 65 % control | APOE RNA (% control) Spinal Cord (human APOE RNA [5]; spinal cord): 44 % control | APOE RNA (% control) Cortex (human APOE RNA [1]; Cortex, C57BL/6NTac-Apoeem7250 knock-in mice, 4 weeks (Table 21)): 54 % control | APOE RNA (% control) Cortex (human APOE RNA [1]; Cortex, C57BL/6NTac-Apoeem7250 knock-in mice, 4 weeks (Table 22)): 65 % control | APOE RNA (% control) Spinal Cord (human APOE RNA [1]; Spinal Cord, C57BL/6NTac-Apoeem7250 knock-in mice, 4 weeks (Table 21)): 51 % control | APOE RNA (% control) Spinal Cord (human APOE RNA [1]; Spinal Cord, C57BL/6NTac-Apoeem7250 knock-in mice, 4 weeks (Table 22)): 87 % control | APOE RNA (% control) Cortex (human APOE RNA [4]): 58 % control | APOE RNA (% control) Spinal Cord (human APOE RNA [4]): 43 % control

Aks^mCeoTeoTesGesGksTdsGdzAdzAdzTds^mCdsTdsTdsTdsAdzTksTksAesAe (kA*e[5mC]eTeT*eG*kG*dT*dG[ms]dA[ms]dA[ms]dT*d[5mC]*dT*dT*dT*dA[ms]kT*kT*eA*eA) [Compound No. 1809635]
APOE RNA (% UTC) (human APOE RNA [2]; 5 nM, 5 days (Table 13)): 67 % UTC | APOE RNA (% UTC) (human APOE RNA [2]; 13 nM, 5 days (Table 13)): 62 % UTC | APOE RNA (% UTC) (human APOE RNA [2]; 33 nM, 5 days (Table 13)): 52 % UTC | APOE RNA (% UTC) (human APOE RNA [2]; 82 nM, 5 days (Table 13)): 43 % UTC | APOE RNA (% UTC) (human APOE RNA [2]; 205 nM, 5 days (Table 13)): 33 % UTC | APOE RNA (% UTC) (human APOE RNA [2]; 512 nM, 5 days (Table 13)): 27 % UTC | APOE RNA (% UTC) (human APOE RNA [2]; 1,280 nM, 5 days (Table 13)): 40 % UTC | APOE RNA (% UTC) (human APOE RNA [2]; 3,200 nM, 5 days (Table 13)): 28 % UTC | APOE RNA (% UTC) (human APOE RNA [2]; 8,000 nM, 5 days (Table 13)): 20 % UTC | APOE RNA (% UTC) (human APOE RNA [2]; 20,000 nM, 5 days (Table 13)): 20 % UTC | IC50 (human APOE RNA [2]; 5 days (Table 13)): 50 nM | reduction of human APOE RNA in the cortex (human APOE RNA [4]; APOE knock-in mouse model, 8 weeks post administration, assay of Example 11): 74% | APOE RNA (% control) Cortex (human APOE RNA [4]): 26 % control | APOE RNA (% control) Spinal Cord (human APOE RNA [4]): 15 % control
